According to the NIST ThermoML archive (doi:10.1016/j.jct.2006.11.001):

Tests used:
[1] = molar heat capacity at constant pressure; conditions: Liquid, thermal relaxation method
[2] = molar heat capacity at constant pressure; xn = mol fraction of the nth substance listed; conditions: Liquid, thermal relaxation method

CO [methanol]
molar heat capacity at constant pressure [J/K/mol], [1]
Conditions	100 kPa	1000 kPa	5000 kPa	10000 kPa	15000 kPa
280 K	77.22	74.02	73.7	–	–
320 K	87.15	85.87	84.27	–	–
360 K	–	97.41	94.2	94.52	97.09

CO [methanol] + O
molar heat capacity at constant pressure [J/K/mol], [2]
Conditions	x1 = 0.0496	x1 = 0.101	x1 = 0.1936	x1 = 0.2606	x1 = 0.4949	x1 = 0.7943
280 K, 100 kPa	81.21	82.78	82.72	82.56	79.36	77.85
280 K, 1000 kPa	81.39	83.75	85	85.38	82.11	80.76
280 K, 5000 kPa	82.14	83.95	85.2	84.52	79.61	76.97
320 K, 100 kPa	80.27	84.53	87.9	89.5	89.35	89.22
320 K, 1000 kPa	79.52	83.75	88.52	89.72	89.1	87.76
320 K, 5000 kPa	81.95	85.5	89.76	91.67	88.6	87.76
360 K, 1000 kPa	81.02	84.72	90.8	92.75	94.34	94.47
360 K, 5000 kPa	80.83	84.53	90.59	92.97	93.59	94.47
360 K, 10000 kPa	82.52	86.28	92.87	95.35	95.09	95.92
360 K, 15000 kPa	82.52	86.67	92.25	95.57	95.58	95.63
